In patent US20060147992A1, “Method for detection of bioactive peptides” (priority 2002, published 2006):

System: platelets
Test: luminometric determination of collagen-induced ATP release from platelets
Type: cell-based
Conditions: platelet rich plasma, 2 μg/ml collagen, RGDS 30 μM; p<0.002 versus collagen alone
From the text: Miniaturised (96 well format) high-throughput screening assays capable of assessing platelet activation that are suitable for screening potential anti-thrombotic agents have been developed. The primary assay is based on the phenomenon that platelet activation results in a substantial release of ATP from dense granules. Released ATP is then rapidly quantitated in a plate reader using bioluminescence and is proportional to the extent of platelet activation.
Platelet rich plasma was stimulated by automated injection of 2 μg/ml collagen in the presence or absence of commercially available RGDS (30 μM). Relative light output was then measured automatically in a BMG Fluostar plate reader.
Fibrinogen was digested with either Lys-C (A) or trypsin (B) prior to fractionation as described in FIGS. 2 and 3.

In the case of RGDS, the “inhibition of collagen-induced ATP release” value is reported as 30%.
